Test results reported in US6737383B1, “Herbicidal oxadiazolidines” (priority 1999, dated 2004).

Legend:
bedstraw = test: Test B pre/postemergence bedstraw; assay type: in vivo, Galium aparine
In short: (§1)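 Response is a visual 0-to-10 score relative to untreated plants, where 0 means no effect and 10 means complete control, taken twelve to sixteen days after application. Treatments went onto soil at planting and onto foliage of 1- to 4-leaf plants, using a surfactant-containing non-phytotoxic solvent.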

soybean = test: Test B pre/postemergence soybean; assay type: in vivo, Glycine max
In short: as §1

cocklebur = test: Test B pre/postemergence cocklebur; assay type: in vivo, Xanthium strumarium
In short: as §1

wild oat = test: Test B pre/postemergence wild oat; assay type: in vivo, Avena fatua; conditions: for Plant response rating, Wild oats: Rate 250 g/ha
In short: as §1

pigweed = test: Test B pre/postemergence pigweed; assay type: in vivo, Amaranthus retroflexus
In short: as §1

surinam grass = test: Test B pre/postemergence surinam grass; assay type: in vivo, Brachiaria decumbens
In short: as §1

morningglory = test: Test B pre/postemergence morningglory; assay type: in vivo, Ipomoea hederacea
In short: as §1

purple nutsedge = test: Test B pre/postemergence purple nutsedge; assay type: in vivo, Cyperus rotundus
In short: as §1

corn = test: Test B pre/postemergence corn; assay type: in vivo, Zea mays
In short: as §1

wheat = test: Test B pre/postemergence wheat; assay type: in vivo, Triticum aestivum; conditions: for Plant response rating, Wheat: Rate 250 g/ha
In short: as §1

giant foxtail = test: Test B pre/postemergence giant foxtail; assay type: in vivo, Setaria faberii
In short: as §1

rape = test: Test B pre/postemergence rape; assay type: in vivo, Brassica napus
In short: as §1

blackgrass = test: Test B pre/postemergence blackgrass; assay type: in vivo, Alopecurus myosuroides
In short: as §1

crabgrass = test: Test B pre/postemergence crabgrass; assay type: in vivo, Digitaria sanguinalis
In short: as §1

velvetleaf = test: Test B pre/postemergence velvetleaf; assay type: in vivo, Abutilon theophrasti; conditions: for Plant response rating, Velvetleaf: Rate 250 g/ha
In short: as §1

[1] = Postemergence, Rate 62 g/ha, scale 0 to 10, 0 is no effect, 10 is complete control
[2] = Postemergence, Rate 250 g/ha, scale 0 to 10, 0 no effect, 10 complete control
[3] = Preemergence, Rate 62 g/ha, scale 0 to 10 (0 no effect, 10 complete control)
[4] = Preemergence, Rate 125 g/ha, scale 0 to 10 (0 no effect, 10 complete control)
[5] = Preemergence, Rate 250 g/ha, scale of 0 to 10 where 0 is no effect and 10 is complete control
[6] = Preemergence, Rate 500 g/ha, scale 0 to 10 (0 no effect, 10 complete control)
[7] = Rate 125 g/ha, Postemergence, scale 0 to 10, 0 no effect, 10 complete control
[8] = Postemergence, Rate 125 g/ha, scale of 0 to 10 where 0 is no effect and 10 is complete control
[9] = Rate 62 g/ha, Postemergence, scale of 0 to 10 where 0 is no effect and 10 is complete control
[10] = Rate 250 g/ha, Postemergence, scale 0 to 10, 0 is no effect, 10 is complete control
[11] = Rate 500 g/ha, Postemergence, scale 0 to 10, 0 no effect, 10 complete control
[12] = Preemergence, Rate 125 g/ha, 0 is no effect, 10 is complete control
[13] = Preemergence, scale of 0 to 10 where 0 is no effect and 10 is complete control
[14] = Postemergence, scale 0 to 10, 0 is no effect, 10 is complete control

In the case of `CC(C)N(C(=O)n1oc(=O)n(C2CCCCC2)c1=O)c1ccc(F)cc1F` [Compound 115], the “Bedstraw plant response rating” value (bedstraw; [1]) is reported as 0, the “Bedstraw plant response rating” value (bedstraw; [2]) is reported as 4 and the “Bedstraw plant response rating” value (bedstraw; [3]) is reported as 0. The “Plant response rating, Bedstraw” value (bedstraw; [4]) was 0, the “Plant response rating, Bedstraw” value (bedstraw; [5]) was 0 and the “Bedstraw plant response rating” value (bedstraw; [6]) was 0. For the same compound, the “Bedstraw plant response rating” value (bedstraw; [7]) was 0, the “Soybean plant response rating” value (soybean; [8]) was 1 and the “Soybean plant response rating” value (soybean; [3]) was 0. For the same compound, the “Plant response rating, Soybean” value (soybean; [4]) was 0, the “Plant response rating, Soybean” value (soybean; [5]) was 0 and the “Soybean plant response rating” value (soybean; [6]) was 0. For the same compound, the “Soybean plant response rating” value (soybean; [9]) was 1, the “Plant response rating, Soybean” value (soybean; [10]) was 4 and the “Soybean plant response rating” value (soybean; [11]) was 4. For the same compound, the “Cocklebur plant response rating” value (cocklebur; [8]) was 0, the “Cocklebur plant response rating” value (cocklebur; [2]) was 1 and the “Cocklebur plant response rating” value (cocklebur; [3]) was 0. The “Plant response rating, Cocklebur” value (cocklebur; [4]) was 0, the “Plant response rating, Cocklebur” value (cocklebur; [5]) was 0 and the “Cocklebur plant response rating” value (cocklebur; [6]) was 0. For the same compound, the “Cocklebur plant response rating” value (cocklebur; [9]) was 0, the “Cocklebur plant response rating” value (cocklebur; [11]) was 2 and the “Wild oats plant response rating” value (wild oat; [8]) was 0. The “Wild oats plant response rating” value (wild oat; [3]) was 0, the “Wild oats plant response rating (0 to 10 scale)” value (wild oat; [12]) was 0 and the “Plant response rating, Wild oats” value (wild oat; [13]) was 0. For the same compound, the “Wild oats plant response rating” value (wild oat; [6]) was 4, the “Wild oats plant response rating” value (wild oat; [9]) was 0 and the “Plant response rating, Wild oats” value (wild oat; [14]) was 0. For the same compound, the “Wild oats plant response rating” value (wild oat; [11]) was 0, the “Redroot pigweed plant response rating” value (pigweed; [8]) was 0 and the “Redroot pigweed plant response rating” value (pigweed; [3]) was 5. For the same compound, the “Plant response rating, Redroot pigweed” value (pigweed; [4]) was 5, the “Plant response rating, Redroot pigweed” value (pigweed; [5]) was 6 and the “Redroot pigweed plant response rating” value (pigweed; [6]) was 8. For the same compound, the “Redroot pigweed plant response rating” value (pigweed; [9]) was 0, the “Plant response rating, Redroot pigweed” value (pigweed; [10]) was 0 and the “Redroot pigweed plant response rating” value (pigweed; [11]) was 4. For the same compound, the “B. signalgrass plant response rating” value (surinam grass; [1]) was 0, the “B. signalgrass plant response rating” value (surinam grass; [2]) was 0 and the “B. signalgrass plant response rating” value (surinam grass; [3]) was 2. The “Plant response rating, B. signalgrass” value (surinam grass; [4]) was 2, the “Plant response rating, B. signalgrass” value (surinam grass; [5]) was 4 and the “B. signalgrass plant response rating” value (surinam grass; [6]) was 10. The “B. signalgrass plant response rating” value (surinam grass; [7]) was 0, the “B. signalgrass plant response rating” value (surinam grass; Rate 500 g/ha, Postemergence, scale of 0 to 10 where 0 is no effect and 10 is complete control) was 8 and the “Morningglory plant response rating” value (morningglory; [8]) was 3. The “Morningglory plant response rating” value (morningglory; [2]) was 6, the “Morningglory plant response rating” value (morningglory; [3]) was 0 and the “Plant response rating, Morningglory” value (morningglory; [4]) was 0. The “Plant response rating, Morningglory” value (morningglory; [5]) was 0, the “Morningglory plant response rating” value (morningglory; [6]) was 0 and the “Morningglory plant response rating” value (morningglory; [9]) was 3. The “Morningglory plant response rating” value (morningglory; [11]) was 6, the “Nutsedge plant response rating” value (purple nutsedge; [8]) was 0 and the “Nutsedge plant response rating” value (purple nutsedge; [2]) was 0. For the same compound, the “Nutsedge plant response rating” value (purple nutsedge; [3]) was 0, the “Plant response rating, Nutsedge” value (purple nutsedge; [4]) was 0 and the “Plant response rating, Nutsedge” value (purple nutsedge; [5]) was 0. For the same compound, the “Nutsedge plant response rating” value (purple nutsedge; [6]) was 0, the “Nutsedge plant response rating” value (purple nutsedge; [9]) was 0 and the “Nutsedge plant response rating” value (purple nutsedge; [11]) was 0. The “Corn plant response rating” value (corn; [8]) was 0, the “Corn plant response rating” value (corn; [2]) was 0 and the “Corn plant response rating” value (corn; [3]) was 0. The “Plant response rating, Corn” value (corn; [4]) was 0, the “Plant response rating, Corn” value (corn; [5]) was 0 and the “Corn plant response rating” value (corn; [6]) was 0. The “Corn plant response rating” value (corn; [9]) was 0, the “Corn plant response rating” value (corn; [11]) was 0 and the “Wheat plant response rating” value (wheat; [8]) was 0. The “Wheat plant response rating” value (wheat; [3]) was 0, the “Wheat plant response rating (0 to 10 scale)” value (wheat; [12]) was 0 and the “Plant response rating, Wheat” value (wheat; [13]) was 0. The “Wheat plant response rating” value (wheat; [6]) was 0, the “Wheat plant response rating” value (wheat; [9]) was 0 and the “Plant response rating, Wheat” value (wheat; [14]) was 0. The “Wheat plant response rating” value (wheat; [11]) was 0, the “Giant foxtail plant response rating” value (giant foxtail; [8]) was 4 and the “Giant foxtail plant response rating” value (giant foxtail; [2]) was 5. For the same compound, the “Giant foxtail plant response rating” value (giant foxtail; [3]) was 9, the “Plant response rating, Giant foxtail” value (giant foxtail; [4]) was 9 and the “Plant response rating, Giant foxtail” value (giant foxtail; [5]) was 9. The “Giant foxtail plant response rating” value (giant foxtail; [6]) was 10, the “Giant foxtail plant response rating” value (giant foxtail; [9]) was 0 and the “Giant foxtail plant response rating” value (giant foxtail; [11]) was 9. For the same compound, the “Rape plant response rating” value (rape; [8]) was 0, the “Rape plant response rating” value (rape; [2]) was 0 and the “Rape plant response rating” value (rape; [3]) was 0. The “Plant response rating, Rape” value (rape; [4]) was 0, the “Plant response rating, Rape” value (rape; [5]) was 0 and the “Rape plant response rating” value (rape; [6]) was 5. For the same compound, the “Rape plant response rating” value (rape; [9]) was 0, the “Rape plant response rating” value (rape; [11]) was 0 and the “Blackgrass plant response rating” value (blackgrass; [8]) was 4. For the same compound, the “Blackgrass plant response rating” value (blackgrass; [2]) was 6, the “Blackgrass plant response rating” value (blackgrass; [3]) was 0 and the “Plant response rating, Blackgrass” value (blackgrass; [4]) was 0. For the same compound, the “Plant response rating, Blackgrass” value (blackgrass; [5]) was 0, the “Blackgrass plant response rating” value (blackgrass; [6]) was 6 and the “Blackgrass plant response rating” value (blackgrass; [9]) was 4. For the same compound, the “Blackgrass plant response rating” value (blackgrass; [11]) was 7, the “Crabgrass plant response rating” value (crabgrass; [8]) was 0 and the “Crabgrass plant response rating” value (crabgrass; [2]) was 2. For the same compound, the “Crabgrass plant response rating” value (crabgrass; [3]) was 4, the “Plant response rating, Crabgrass” value (crabgrass; [4]) was 4 and the “Plant response rating, Crabgrass” value (crabgrass; [5]) was 7. For the same compound, the “Crabgrass plant response rating” value (crabgrass; [6]) was 9, the “Crabgrass plant response rating” value (crabgrass; [9]) was 0 and the “Crabgrass plant response rating” value (crabgrass; [11]) was 6. For the same compound, the “Velvetleaf plant response rating” value (velvetleaf; [8]) was 0, the “Velvetleaf plant response rating” value (velvetleaf; [3]) was 0 and the “Velvetleaf plant response rating (0 to 10 scale)” value (velvetleaf; [12]) was 0. For the same compound, the “Plant response rating, Velvetleaf” value (velvetleaf; [13]) was 2, the “Velvetleaf plant response rating” value (velvetleaf; [6]) was 2 and the “Velvetleaf plant response rating” value (velvetleaf; [9]) was 0. The “Plant response rating, Velvetleaf” value (velvetleaf; [14]) was 0 and the “Velvetleaf plant response rating” value (velvetleaf; [11]) was 0.
